Data taken from PubChem BioAssay (NCI).
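A five-concentration, 48-hour dose response in 96-well plates underlies each endpoint, interpolated linearly between surrounding concentrations. GI50 = concentration required for 50% inhibition of growth. Definition used: TGI = concentration required for complete inhibition of growth.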

What was measured:
Assay in all cases: NCI tumour cell line growth inhibition, 48 h
UACC-62 melanoma = tested on: UACC-62 melanoma
SK-MEL-28 melanoma = tested on: SK-MEL-28 melanoma
COLO 205 colon = tested on: COLO 205 colon
SW-620 colon = tested on: SW-620 colon
SNB-75 CNS = tested on: SNB-75 CNS
ACHN renal = tested on: ACHN renal
KM12 colon = tested on: KM12 colon
DU-145 prostate = tested on: DU-145 prostate
MDA-MB-435 = tested on: MDA-MB-435
UACC-257 melanoma = tested on: UACC-257 melanoma
CCRF-CEM leukemia = tested on: CCRF-CEM leukemia
SNB-19 CNS = tested on: SNB-19 CNS
LOX IMVI melanoma = tested on: LOX IMVI melanoma
A498 renal = tested on: A498 renal
HT29 colon = tested on: HT29 colon
786-0 renal = tested on: 786-0 renal
HS 578T breast = tested on: HS 578T breast
NCI-H226 lung = tested on: NCI-H226 lung
K-562 leukemia = tested on: K-562 leukemia
HCT-15 colon = tested on: HCT-15 colon
SK-MEL-2 melanoma = tested on: SK-MEL-2 melanoma
RXF 393 renal = tested on: RXF 393 renal
OVCAR-5 ovarian = tested on: OVCAR-5 ovarian
CAKI-1 renal = tested on: CAKI-1 renal
NCI-H460 lung = tested on: NCI-H460 lung
NCI-H522 lung = tested on: NCI-H522 lung
SF-295 CNS = tested on: SF-295 CNS
OVCAR-4 ovarian = tested on: OVCAR-4 ovarian
SK-OV-3 ovarian = tested on: SK-OV-3 ovarian
HL-60(TB) leukemia = tested on: HL-60(TB) leukemia
TK-10 renal = tested on: TK-10 renal
M14 melanoma = tested on: M14 melanoma
U251 CNS = tested on: U251 CNS
T-47D breast = tested on: T-47D breast
BT-549 breast = tested on: BT-549 breast
HCC-2998 colon = tested on: HCC-2998 colon
SF-539 CNS = tested on: SF-539 CNS
SK-MEL-5 melanoma = tested on: SK-MEL-5 melanoma
OVCAR-3 ovarian = tested on: OVCAR-3 ovarian
HOP-92 NSCLC = tested on: HOP-92 NSCLC
RPMI-8226 leukemia = tested on: RPMI-8226 leukemia
SR leukemia = tested on: SR leukemia
MDA-MB-231 breast = tested on: MDA-MB-231 breast
HOP-62 NSCLC = tested on: HOP-62 NSCLC
SF-268 CNS = tested on: SF-268 CNS
PC-3 prostate = tested on: PC-3 prostate
A549 NSCLC = tested on: A549 NSCLC
NCI/ADR-RES ovarian = tested on: NCI/ADR-RES ovarian
NCI-H23 lung = tested on: NCI-H23 lung
MCF7 breast = tested on: MCF7 breast
EKVX NSCLC = tested on: EKVX NSCLC
MOLT-4 leukemia = tested on: MOLT-4 leukemia
MALME-3M melanoma = tested on: MALME-3M melanoma
OVCAR-8 ovarian = tested on: OVCAR-8 ovarian
IGROV1 ovarian = tested on: IGROV1 ovarian

Compound: COc1cc2c(cc1OCCCCCN1CCN(CCCCCOc3cc4c(cc3OC)C(=O)C3CCC[C@H]3C=N4)CC1)N=C[C@@H]1CCCC1C2=O (stereo not given in full)
- GI50 (UACC-62 melanoma): 2.35 µM
- TGI (UACC-62 melanoma): 7.87 µM
- GI50 (SK-MEL-28 melanoma): 19.4 µM
- TGI (SK-MEL-28 melanoma): > 100 µM
- GI50 (COLO 205 colon): 2.67 µM
- TGI (COLO 205 colon): 11.3 µM
- GI50 (SW-620 colon): 2.51 µM
- TGI (SW-620 colon): 46.6 µM
- GI50 (SNB-75 CNS): 16.1 µM
- TGI (SNB-75 CNS): > 94.4 µM
- GI50 (ACHN renal): 18.9 µM
- TGI (ACHN renal): > 100 µM
- GI50 (KM12 colon): 13.9 µM
- TGI (KM12 colon): > 100 µM
- GI50 (DU-145 prostate): 12.9 µM
- TGI (DU-145 prostate): > 100 µM
- GI50 (MDA-MB-435): 5.81 µM
- TGI (MDA-MB-435): 39.9 µM
- GI50 (UACC-257 melanoma): 9.73 µM
- TGI (UACC-257 melanoma): > 46 µM
- GI50 (CCRF-CEM leukemia): 3.06 µM
- TGI (CCRF-CEM leukemia): > 48.7 µM
- GI50 (SNB-19 CNS): > 39.4 µM
- TGI (SNB-19 CNS): > 100 µM
- GI50 (LOX IMVI melanoma): 3.07 µM
- TGI (LOX IMVI melanoma): > 100 µM
- GI50 (A498 renal): 2.07 µM
- TGI (A498 renal): 5.48 µM
- GI50 (HT29 colon): 9.47 µM
- TGI (HT29 colon): > 100 µM
- GI50 (786-0 renal): 1.51 µM
- TGI (786-0 renal): 4.64 µM
- GI50 (HS 578T breast): 5.63 µM
- TGI (HS 578T breast): > 68.7 µM
- GI50 (NCI-H226 lung): 4.8 µM
- TGI (NCI-H226 lung): > 74.3 µM
- GI50 (K-562 leukemia): 6.51 µM
- TGI (K-562 leukemia): 28.4 µM
- GI50 (HCT-15 colon): 52.9 µM
- TGI (HCT-15 colon): > 100 µM
- GI50 (SK-MEL-2 melanoma): 2.2 µM
- TGI (SK-MEL-2 melanoma): 5.26 µM
- GI50 (RXF 393 renal): 2.23 µM
- TGI (RXF 393 renal): 7.11 µM
- GI50 (OVCAR-5 ovarian): 5.52 µM
- TGI (OVCAR-5 ovarian): > 54.1 µM
- GI50 (CAKI-1 renal): 27.5 µM
- TGI (CAKI-1 renal): > 81.4 µM
- GI50 (NCI-H460 lung): 3.38 µM
- TGI (NCI-H460 lung): > 94.2 µM
- GI50 (NCI-H522 lung): 1.76 µM
- TGI (NCI-H522 lung): > 100 µM
- GI50 (SF-295 CNS): 6.19 µM
- TGI (SF-295 CNS): > 100 µM
- GI50 (OVCAR-4 ovarian): 42 µM
- TGI (OVCAR-4 ovarian): > 100 µM
- GI50 (SK-OV-3 ovarian): 43.2 µM
- TGI (SK-OV-3 ovarian): > 100 µM
- GI50 (HL-60(TB) leukemia): 2.83 µM
- TGI (HL-60(TB) leukemia): 7.15 µM
- GI50 (TK-10 renal): 5.05 µM
- TGI (TK-10 renal): 14.6 µM
- GI50 (M14 melanoma): 17.5 µM
- TGI (M14 melanoma): 80.9 µM
- GI50 (U251 CNS): 3.74 µM
- TGI (U251 CNS): > 100 µM
- GI50 (T-47D breast): 6.89 µM
- TGI (T-47D breast): > 100 µM
- GI50 (BT-549 breast): 10.9 µM
- TGI (BT-549 breast): > 86.8 µM
- GI50 (HCC-2998 colon): 2.18 µM
- TGI (HCC-2998 colon): 6.02 µM
- GI50 (SF-539 CNS): 9.82 µM
- TGI (SF-539 CNS): > 79 µM
- GI50 (SK-MEL-5 melanoma): 3.34 µM
- TGI (SK-MEL-5 melanoma): 21.6 µM
- GI50 (OVCAR-3 ovarian): 10.1 µM
- TGI (OVCAR-3 ovarian): > 93.4 µM
- GI50 (HOP-92 NSCLC): 3.22 µM
- TGI (HOP-92 NSCLC): > 42.6 µM
- GI50 (RPMI-8226 leukemia): 1.84 µM
- TGI (RPMI-8226 leukemia): 11.9 µM
- GI50 (SR leukemia): 2.97 µM
- TGI (SR leukemia): 39.6 µM
- GI50 (MDA-MB-231 breast): 3.84 µM
- TGI (MDA-MB-231 breast): > 100 µM
- GI50 (HOP-62 NSCLC): > 100 µM
- TGI (HOP-62 NSCLC): > 100 µM
- GI50 (SF-268 CNS): 3.51 µM
- TGI (SF-268 CNS): > 100 µM
- GI50 (PC-3 prostate): 3.16 µM
- TGI (PC-3 prostate): > 100 µM
- GI50 (A549 NSCLC): 10.7 µM
- TGI (A549 NSCLC): > 51.8 µM
- GI50 (NCI/ADR-RES ovarian): > 100 µM
- TGI (NCI/ADR-RES ovarian): > 100 µM
- GI50 (NCI-H23 lung): 3.72 µM
- TGI (NCI-H23 lung): > 21.1 µM
- GI50 (MCF7 breast): 2.72 µM
- TGI (MCF7 breast): > 100 µM
- GI50 (EKVX NSCLC): 41.3 µM
- TGI (EKVX NSCLC): > 100 µM
- GI50 (MOLT-4 leukemia): 2.55 µM
- TGI (MOLT-4 leukemia): 7 µM
- GI50 (MALME-3M melanoma): 23 µM
- TGI (MALME-3M melanoma): 47.7 µM
- GI50 (OVCAR-8 ovarian): 7.89 µM
- TGI (OVCAR-8 ovarian): > 37 µM
- GI50 (IGROV1 ovarian): 3.88 µM
- TGI (IGROV1 ovarian): > 25 µM
